Assay results taken from ChEMBL document CHEMBL3991601, “The target landscape of clinical kinase drugs” (Science, 2017).
Activity calls are given as the source filed them.

Assays:
[1] = molecular target: T1, Acyl-CoA dehydrogenase family member 10 (Homo sapiens, UniProt Q6JQN1)
T1 sequence (Q6JQN1 whole entry): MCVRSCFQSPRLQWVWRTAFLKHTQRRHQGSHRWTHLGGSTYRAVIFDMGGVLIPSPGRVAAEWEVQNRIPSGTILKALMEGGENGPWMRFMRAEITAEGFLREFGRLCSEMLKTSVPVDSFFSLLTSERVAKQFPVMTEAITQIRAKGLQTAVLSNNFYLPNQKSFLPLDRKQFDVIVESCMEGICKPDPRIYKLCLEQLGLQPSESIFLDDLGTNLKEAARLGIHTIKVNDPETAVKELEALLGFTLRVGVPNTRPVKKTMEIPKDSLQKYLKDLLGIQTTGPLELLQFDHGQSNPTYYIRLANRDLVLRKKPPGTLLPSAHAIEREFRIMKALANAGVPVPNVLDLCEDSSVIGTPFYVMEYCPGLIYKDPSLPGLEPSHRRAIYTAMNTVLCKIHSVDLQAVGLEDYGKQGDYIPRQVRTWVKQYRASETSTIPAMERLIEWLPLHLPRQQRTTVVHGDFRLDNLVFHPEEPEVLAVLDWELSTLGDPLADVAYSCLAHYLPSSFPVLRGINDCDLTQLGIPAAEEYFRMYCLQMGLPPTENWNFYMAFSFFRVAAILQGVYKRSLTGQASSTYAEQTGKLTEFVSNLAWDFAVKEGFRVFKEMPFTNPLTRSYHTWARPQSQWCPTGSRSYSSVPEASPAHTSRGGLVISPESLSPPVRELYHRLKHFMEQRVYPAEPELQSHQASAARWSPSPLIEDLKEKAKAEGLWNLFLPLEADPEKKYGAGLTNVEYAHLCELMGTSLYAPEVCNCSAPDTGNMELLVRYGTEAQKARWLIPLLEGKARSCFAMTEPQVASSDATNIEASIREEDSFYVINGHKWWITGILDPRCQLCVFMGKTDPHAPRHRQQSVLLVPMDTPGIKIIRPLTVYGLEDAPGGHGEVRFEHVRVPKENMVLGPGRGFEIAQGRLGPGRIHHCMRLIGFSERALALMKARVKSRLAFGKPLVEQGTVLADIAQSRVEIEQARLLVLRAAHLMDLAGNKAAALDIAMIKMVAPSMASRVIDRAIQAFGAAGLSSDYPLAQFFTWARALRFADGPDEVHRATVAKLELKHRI

[2] = molecular target: Bone morphogenetic protein receptor type-1B (Homo sapiens, UniProt O00238)
Chain of Bone morphogenetic protein receptor type-1B (O00238 whole entry): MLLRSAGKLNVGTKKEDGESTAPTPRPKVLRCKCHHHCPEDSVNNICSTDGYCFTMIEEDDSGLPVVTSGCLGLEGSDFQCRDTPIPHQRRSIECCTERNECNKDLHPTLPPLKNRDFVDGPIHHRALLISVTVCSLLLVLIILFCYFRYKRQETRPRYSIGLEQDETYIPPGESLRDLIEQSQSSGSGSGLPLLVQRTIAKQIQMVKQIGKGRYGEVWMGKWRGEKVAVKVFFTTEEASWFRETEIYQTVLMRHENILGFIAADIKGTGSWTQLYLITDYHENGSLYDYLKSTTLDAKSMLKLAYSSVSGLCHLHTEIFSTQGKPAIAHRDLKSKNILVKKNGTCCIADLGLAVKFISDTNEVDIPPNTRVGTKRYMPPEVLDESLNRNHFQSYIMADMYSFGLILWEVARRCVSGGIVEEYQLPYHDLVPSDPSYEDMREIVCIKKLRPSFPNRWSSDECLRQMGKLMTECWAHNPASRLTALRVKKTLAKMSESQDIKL

[3] = molecular target: Insulin-like growth factor 1 receptor (Homo sapiens, UniProt P08069)
Chain of Insulin-like growth factor 1 receptor (P08069 31-736 limits assumed): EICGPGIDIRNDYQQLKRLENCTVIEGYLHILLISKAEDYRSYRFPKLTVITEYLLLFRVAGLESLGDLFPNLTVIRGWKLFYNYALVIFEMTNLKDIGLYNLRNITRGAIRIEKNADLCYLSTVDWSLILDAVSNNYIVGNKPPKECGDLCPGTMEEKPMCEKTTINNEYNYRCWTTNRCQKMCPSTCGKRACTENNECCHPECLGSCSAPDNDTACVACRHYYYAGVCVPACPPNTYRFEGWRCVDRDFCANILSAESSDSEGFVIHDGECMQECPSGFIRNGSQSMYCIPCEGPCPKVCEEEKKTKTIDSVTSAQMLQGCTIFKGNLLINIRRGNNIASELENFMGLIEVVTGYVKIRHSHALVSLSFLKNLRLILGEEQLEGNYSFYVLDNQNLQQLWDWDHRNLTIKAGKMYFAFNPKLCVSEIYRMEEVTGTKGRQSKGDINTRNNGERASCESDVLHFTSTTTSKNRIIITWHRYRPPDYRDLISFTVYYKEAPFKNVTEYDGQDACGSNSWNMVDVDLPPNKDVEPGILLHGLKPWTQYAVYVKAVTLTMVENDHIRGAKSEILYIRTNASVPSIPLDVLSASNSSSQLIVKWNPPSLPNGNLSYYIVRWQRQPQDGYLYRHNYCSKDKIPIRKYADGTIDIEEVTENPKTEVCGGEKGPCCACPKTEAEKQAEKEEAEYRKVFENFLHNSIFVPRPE
Chain of Insulin-like growth factor 1 receptor (P08069 741-1367 limits assumed): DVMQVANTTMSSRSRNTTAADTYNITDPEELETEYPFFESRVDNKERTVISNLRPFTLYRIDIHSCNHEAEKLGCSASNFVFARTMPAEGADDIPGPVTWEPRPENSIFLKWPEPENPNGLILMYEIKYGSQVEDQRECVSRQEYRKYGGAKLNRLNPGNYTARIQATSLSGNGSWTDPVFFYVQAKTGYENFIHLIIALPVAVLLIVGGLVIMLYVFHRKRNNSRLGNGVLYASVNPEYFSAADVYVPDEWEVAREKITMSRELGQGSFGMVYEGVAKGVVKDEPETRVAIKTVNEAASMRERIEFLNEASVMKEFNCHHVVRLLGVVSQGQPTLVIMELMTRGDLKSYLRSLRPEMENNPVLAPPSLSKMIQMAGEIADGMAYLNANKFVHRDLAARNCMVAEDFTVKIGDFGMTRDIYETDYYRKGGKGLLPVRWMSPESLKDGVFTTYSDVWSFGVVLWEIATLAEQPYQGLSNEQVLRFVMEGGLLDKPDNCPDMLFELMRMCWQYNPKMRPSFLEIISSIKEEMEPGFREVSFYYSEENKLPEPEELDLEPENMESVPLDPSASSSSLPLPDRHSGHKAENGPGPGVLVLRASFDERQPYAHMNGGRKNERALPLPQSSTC

[4] = molecular target: Mitogen-activated protein kinase 3 (Homo sapiens, UniProt P27361)
Chain of Mitogen-activated protein kinase 3 (P27361 whole entry): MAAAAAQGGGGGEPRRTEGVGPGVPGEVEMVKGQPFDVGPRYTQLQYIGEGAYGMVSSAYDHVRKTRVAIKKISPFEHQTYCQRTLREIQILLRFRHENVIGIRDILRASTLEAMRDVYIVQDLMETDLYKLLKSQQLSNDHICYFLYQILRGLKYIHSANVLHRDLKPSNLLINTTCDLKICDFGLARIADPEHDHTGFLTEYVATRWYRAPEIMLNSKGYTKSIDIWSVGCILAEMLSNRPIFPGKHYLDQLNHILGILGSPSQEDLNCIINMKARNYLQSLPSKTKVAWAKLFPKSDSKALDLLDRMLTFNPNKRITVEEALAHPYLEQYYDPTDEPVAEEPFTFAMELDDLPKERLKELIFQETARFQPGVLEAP

[5] = molecular target: Serine/threonine-protein kinase PAK 2 (Homo sapiens, UniProt Q13177)
Chain of Serine/threonine-protein kinase PAK 2 (Q13177 whole entry): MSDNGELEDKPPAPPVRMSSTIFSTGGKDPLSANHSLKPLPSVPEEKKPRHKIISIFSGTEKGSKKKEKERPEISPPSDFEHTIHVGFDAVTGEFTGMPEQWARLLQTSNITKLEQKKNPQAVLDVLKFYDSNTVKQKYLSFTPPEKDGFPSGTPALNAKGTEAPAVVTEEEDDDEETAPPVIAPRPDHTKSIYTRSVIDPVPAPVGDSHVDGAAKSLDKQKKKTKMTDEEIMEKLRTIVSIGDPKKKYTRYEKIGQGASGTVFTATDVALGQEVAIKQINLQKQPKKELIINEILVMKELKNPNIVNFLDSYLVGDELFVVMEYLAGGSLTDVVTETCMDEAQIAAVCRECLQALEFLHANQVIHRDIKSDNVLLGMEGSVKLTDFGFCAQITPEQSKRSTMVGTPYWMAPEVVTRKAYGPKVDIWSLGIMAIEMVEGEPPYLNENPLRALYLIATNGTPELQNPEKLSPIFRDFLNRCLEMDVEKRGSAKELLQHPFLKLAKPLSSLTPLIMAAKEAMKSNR

[6] = molecular target: Ribosomal protein S6 kinase alpha-6 (Homo sapiens, UniProt Q9UK32)
Chain of Ribosomal protein S6 kinase alpha-6 (Q9UK32 whole entry): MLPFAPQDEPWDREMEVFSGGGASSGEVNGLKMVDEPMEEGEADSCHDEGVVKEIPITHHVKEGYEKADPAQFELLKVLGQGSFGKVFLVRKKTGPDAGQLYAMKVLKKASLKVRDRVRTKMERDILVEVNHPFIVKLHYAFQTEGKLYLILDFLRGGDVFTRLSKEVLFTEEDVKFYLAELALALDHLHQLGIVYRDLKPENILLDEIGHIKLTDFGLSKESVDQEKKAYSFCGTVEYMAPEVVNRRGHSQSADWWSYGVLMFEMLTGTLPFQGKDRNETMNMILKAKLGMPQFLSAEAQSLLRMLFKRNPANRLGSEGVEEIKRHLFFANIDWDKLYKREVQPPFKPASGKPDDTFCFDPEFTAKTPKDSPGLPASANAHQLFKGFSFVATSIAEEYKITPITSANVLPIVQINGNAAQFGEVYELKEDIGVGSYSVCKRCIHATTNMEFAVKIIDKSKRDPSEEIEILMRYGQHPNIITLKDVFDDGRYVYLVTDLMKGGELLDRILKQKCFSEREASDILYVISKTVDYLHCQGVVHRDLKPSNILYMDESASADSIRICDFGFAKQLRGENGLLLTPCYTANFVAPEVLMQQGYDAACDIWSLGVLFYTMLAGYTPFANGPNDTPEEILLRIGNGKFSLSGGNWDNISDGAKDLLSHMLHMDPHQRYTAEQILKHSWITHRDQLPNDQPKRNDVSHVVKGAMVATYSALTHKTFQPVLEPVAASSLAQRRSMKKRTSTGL

[7] = molecular target: T2, Structural maintenance of chromosomes protein 1A (Homo sapiens, UniProt Q14683)
T2 sequence (Q14683 whole entry): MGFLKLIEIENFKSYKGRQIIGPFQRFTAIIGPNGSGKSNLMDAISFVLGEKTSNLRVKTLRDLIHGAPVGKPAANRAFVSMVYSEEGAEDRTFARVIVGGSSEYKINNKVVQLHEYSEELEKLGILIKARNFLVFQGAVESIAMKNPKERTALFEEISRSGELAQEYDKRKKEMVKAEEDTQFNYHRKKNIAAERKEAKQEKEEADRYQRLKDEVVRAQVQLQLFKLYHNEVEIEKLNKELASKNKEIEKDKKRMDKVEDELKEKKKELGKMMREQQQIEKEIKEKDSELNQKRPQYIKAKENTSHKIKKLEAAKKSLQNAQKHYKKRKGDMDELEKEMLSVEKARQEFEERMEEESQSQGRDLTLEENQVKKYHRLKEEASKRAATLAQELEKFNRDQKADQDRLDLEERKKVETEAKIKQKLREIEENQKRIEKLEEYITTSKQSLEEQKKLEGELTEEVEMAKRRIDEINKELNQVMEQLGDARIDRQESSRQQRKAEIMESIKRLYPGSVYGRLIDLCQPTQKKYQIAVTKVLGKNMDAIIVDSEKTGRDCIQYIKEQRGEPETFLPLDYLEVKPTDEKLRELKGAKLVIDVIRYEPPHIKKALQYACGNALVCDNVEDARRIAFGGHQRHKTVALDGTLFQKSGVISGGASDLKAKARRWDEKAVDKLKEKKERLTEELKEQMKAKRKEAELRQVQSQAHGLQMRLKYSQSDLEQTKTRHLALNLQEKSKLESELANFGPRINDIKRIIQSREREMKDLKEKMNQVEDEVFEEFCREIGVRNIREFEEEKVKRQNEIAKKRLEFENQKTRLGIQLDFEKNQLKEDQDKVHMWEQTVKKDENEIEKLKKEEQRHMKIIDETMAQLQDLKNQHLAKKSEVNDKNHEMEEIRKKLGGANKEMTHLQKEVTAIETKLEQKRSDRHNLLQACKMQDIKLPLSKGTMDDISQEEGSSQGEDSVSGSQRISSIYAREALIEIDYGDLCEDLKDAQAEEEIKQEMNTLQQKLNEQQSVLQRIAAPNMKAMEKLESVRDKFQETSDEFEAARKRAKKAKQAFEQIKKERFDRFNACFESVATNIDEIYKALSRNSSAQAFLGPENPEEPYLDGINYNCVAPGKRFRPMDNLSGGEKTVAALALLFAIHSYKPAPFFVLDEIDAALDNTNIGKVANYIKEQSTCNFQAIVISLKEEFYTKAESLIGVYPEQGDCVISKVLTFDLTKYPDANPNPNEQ

TGF-beta receptor type-1 = molecular target: T3, TGF-beta receptor type-1 (Homo sapiens, UniProt P36897)
T3 sequence (P36897 whole entry): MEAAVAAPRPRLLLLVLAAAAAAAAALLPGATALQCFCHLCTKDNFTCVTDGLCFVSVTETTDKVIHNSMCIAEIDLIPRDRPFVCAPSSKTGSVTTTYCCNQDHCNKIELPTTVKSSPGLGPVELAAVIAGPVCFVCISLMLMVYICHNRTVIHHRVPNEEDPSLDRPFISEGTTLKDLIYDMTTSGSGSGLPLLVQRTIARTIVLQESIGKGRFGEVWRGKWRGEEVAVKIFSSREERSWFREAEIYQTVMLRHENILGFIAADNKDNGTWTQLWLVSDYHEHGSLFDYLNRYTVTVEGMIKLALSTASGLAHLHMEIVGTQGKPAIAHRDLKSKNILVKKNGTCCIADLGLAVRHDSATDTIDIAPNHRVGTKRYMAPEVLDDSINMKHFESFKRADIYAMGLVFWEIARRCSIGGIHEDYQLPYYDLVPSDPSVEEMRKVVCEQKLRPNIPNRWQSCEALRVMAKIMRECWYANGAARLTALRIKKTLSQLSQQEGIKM
Note: in the data inactive means no Kd found up to 30 µM.

Row | SMILES | Kd [1] | Kd [2] | Kd [3] | Kd [4] | Kd [5] | Kd [6] | Kd [7] | Kd (TGF-beta receptor type-1)
1 | Cc1cc(-c2cc(O)ccc2Cl)cc2nnc(Nc3ccc(OCCN4CCCC4)cc3)nc12 | > 30 µM (inactive) | > 30 µM (inactive) | > 30 µM (inactive) | > 30 µM (inactive) | > 30 µM (inactive) | > 30 µM (inactive) | > 30 µM (inactive) | 0.002 µM (active)
2 | O=C(c1ccc(F)c(F)c1Nc1ccc(I)cc1F)N1CC(O)([C@@H]2CCCCN2)C1 [COBIMETINIB] | > 30 µM (inactive) | > 30 µM (inactive) | > 30 µM (inactive) | > 30 µM (inactive) | > 30 µM (inactive) | > 30 µM (inactive) | > 30 µM (inactive) | > 30 µM (inactive)
3 | O=c1sn(-c2cccc3ccccc23)c(=O)n1Cc1ccccc1 [TIDEGLUSIB] | > 30 µM (inactive) | > 30 µM (inactive) | > 30 µM (inactive) | > 30 µM (inactive) | > 30 µM (inactive) | > 30 µM (inactive) | > 30 µM (inactive) | > 30 µM (inactive)
4 | CNS(=O)(=O)Nc1nccc(Cc2c(C)c3ccc(Oc4ncccn4)cc3oc2=O)c1F [AVUTOMETINIB] | > 30 µM (inactive) | > 30 µM (inactive) | > 30 µM (inactive) | > 30 µM (inactive) | > 30 µM (inactive) | > 30 µM (inactive) | > 30 µM (inactive) | > 30 µM (inactive)
5 | Cc1ccc(S(=O)(=O)Nc2nc3ccccc3nc2Nc2ccc3nsnc3c2)cc1 | > 30 µM (inactive) | > 30 µM (inactive) | > 30 µM (inactive) | > 30 µM (inactive) | > 30 µM (inactive) | > 30 µM (inactive) | > 30 µM (inactive) | > 30 µM (inactive)
6 | CN1CCC(CNc2ccc3ncc(-c4cccc(OC(F)(F)F)c4)n3n2)CC1 [SGI-1776] | > 30 µM (inactive) | > 30 µM (inactive) | > 30 µM (inactive) | > 30 µM (inactive) | > 30 µM (inactive) | 23.8 µM (active) | > 30 µM (inactive) | > 30 µM (inactive)
7 | CCCS(=O)(=O)Nc1ccc(F)c(C(=O)c2c[nH]c3ncc(-c4ccc(Cl)cc4)cc23)c1F [VEMURAFENIB] | > 30 µM (inactive) | > 30 µM (inactive) | > 30 µM (inactive) | > 30 µM (inactive) | > 30 µM (inactive) | > 30 µM (inactive) | > 30 µM (inactive) | > 30 µM (inactive)
8 | C=CC(=O)N1CCC(Oc2cc3c(Nc4ccc(Cl)c(Cl)c4F)ncnc3cc2OC)CC1 [POZIOTINIB] | > 30 µM (inactive) | > 30 µM (inactive) | > 30 µM (inactive) | > 30 µM (inactive) | > 30 µM (inactive) | > 30 µM (inactive) | > 30 µM (inactive) | > 30 µM (inactive)
